Test results reported in US20260130925A1, “METHODS FOR TREATING CANCER” (Genesis Molecular AI, Inc., priority 2022, published 2026).

Molecular target: T1, PI3Kα H1047R in T47D cells (Homo sapiens, UniProt P42336, H1047R)
T1 construct: endogenous in cells; host or cells: T47D
Experiment: PI3Kα cellular assay: T47D pAKT S473 HTRF
Assay type: cell-based
Settings: for T47D pAKT S473 HTRF IC50 (H1047R): T47D (H1047R) selectivity over SKBR3 (WT): T47D (H1047R) versus SKBR3 (WT) cells; for IC50: T47D cells (H1047R), serum starved, 1 hr compound, 20 ng/ml EGF 10 min
Experimental: PI3Kα cellular assay experimental procedure: SKBR3 or T47D cells are seeded in DMEM containing 10% FBS at 25 k cells/well into 96-well cell culture format. Cells are incubated overnight at 37° C. in a 5% CO2 incubator and the following day cell media is aspirated, adherent cells are washed 1× with room temperature PBS prior to serum-free media application. Cells are returned to 37° C. 5% CO2 incubator and incubated a further 16 hrs. Compounds are added to serum starved adherent cells with a top dose of 10,000 nM and 3× multiple dose reductions for a minimum dose of 0.5 nM diluted in DMSO. Cell/compound incubation continues for 1 hr in a 37° C., 5% CO2 incubator prior to 10 minute PIK3CA stimulation with 20 ng/ml EGF. Cells treated with 0.1% DMSO and 20 ng/mL EGF are employed as negative control, cells treated with 10 uM Alpelisib and 20 ng/mL EGF are employed as a positive control. After 10 mins, plates are removed from incubator and cells are lysed with buffer and shaking 45 minutes. 20 μL of lysate is transferred to an opti-384 plate and 2.5 μl of Phospho-AKT d2 antibody with 2.5 μl of Phospho-AKT Eu Cryptate solution in the detection buffer are added to each well. 384 well plate is left overnight at room temperature before reading HTRF on an Envision plate reader.

T1 sequence (P42336 whole entry H1047R): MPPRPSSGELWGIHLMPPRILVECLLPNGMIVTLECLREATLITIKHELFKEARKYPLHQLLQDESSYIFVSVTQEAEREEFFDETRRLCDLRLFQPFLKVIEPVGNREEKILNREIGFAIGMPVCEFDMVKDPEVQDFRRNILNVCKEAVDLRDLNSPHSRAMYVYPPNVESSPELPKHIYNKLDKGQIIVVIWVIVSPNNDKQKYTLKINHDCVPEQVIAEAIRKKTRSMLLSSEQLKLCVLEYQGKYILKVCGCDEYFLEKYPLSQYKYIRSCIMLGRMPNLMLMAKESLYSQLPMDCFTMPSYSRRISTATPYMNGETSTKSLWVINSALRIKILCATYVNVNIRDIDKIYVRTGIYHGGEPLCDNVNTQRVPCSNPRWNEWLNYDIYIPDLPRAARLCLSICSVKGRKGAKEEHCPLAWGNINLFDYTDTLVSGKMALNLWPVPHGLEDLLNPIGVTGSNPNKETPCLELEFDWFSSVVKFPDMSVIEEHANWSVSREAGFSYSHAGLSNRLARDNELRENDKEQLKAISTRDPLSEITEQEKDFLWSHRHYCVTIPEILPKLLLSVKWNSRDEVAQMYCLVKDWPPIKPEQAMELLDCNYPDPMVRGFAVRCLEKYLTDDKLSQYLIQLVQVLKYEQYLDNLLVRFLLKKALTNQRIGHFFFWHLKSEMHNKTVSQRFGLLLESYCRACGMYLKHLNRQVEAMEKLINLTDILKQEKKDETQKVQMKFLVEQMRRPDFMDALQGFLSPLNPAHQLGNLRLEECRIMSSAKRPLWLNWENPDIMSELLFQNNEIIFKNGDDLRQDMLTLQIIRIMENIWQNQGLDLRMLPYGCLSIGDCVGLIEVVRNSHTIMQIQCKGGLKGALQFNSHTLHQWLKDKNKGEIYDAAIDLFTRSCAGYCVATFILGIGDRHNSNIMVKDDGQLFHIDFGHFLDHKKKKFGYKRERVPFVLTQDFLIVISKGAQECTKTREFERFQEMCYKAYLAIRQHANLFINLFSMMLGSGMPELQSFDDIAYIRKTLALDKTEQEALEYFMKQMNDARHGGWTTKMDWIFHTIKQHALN
T1 sequence (P27986 whole entry partner): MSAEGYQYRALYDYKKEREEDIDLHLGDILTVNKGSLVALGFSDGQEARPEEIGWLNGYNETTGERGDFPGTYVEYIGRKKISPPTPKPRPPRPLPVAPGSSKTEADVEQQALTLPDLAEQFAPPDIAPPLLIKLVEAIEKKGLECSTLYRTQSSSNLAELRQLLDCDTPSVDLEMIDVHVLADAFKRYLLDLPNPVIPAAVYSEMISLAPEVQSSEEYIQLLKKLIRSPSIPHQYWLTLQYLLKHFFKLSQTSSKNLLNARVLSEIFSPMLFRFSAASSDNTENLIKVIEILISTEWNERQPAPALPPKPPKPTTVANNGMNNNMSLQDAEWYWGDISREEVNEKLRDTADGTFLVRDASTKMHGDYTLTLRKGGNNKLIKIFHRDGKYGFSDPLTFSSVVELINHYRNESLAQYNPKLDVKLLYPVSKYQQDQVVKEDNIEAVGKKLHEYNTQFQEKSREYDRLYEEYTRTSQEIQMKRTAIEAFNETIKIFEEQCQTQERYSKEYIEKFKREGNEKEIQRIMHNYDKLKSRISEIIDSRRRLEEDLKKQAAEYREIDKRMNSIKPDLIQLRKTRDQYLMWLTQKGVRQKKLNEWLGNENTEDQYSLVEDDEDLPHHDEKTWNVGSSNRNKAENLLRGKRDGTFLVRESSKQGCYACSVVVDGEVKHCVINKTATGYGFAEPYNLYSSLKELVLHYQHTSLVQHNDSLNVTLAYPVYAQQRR

| SMILES | T47D pAKT S473 HTRF IC50 (H1047R): T47D (H1047R) selectivity over SKBR3 (WT) | IC50 |
| --- | --- | --- |
| Cc1cc([C@H](C)Nc2ccccc2C(=O)O)c2nc(N3CCC(C)(C)CC3)nc(N)c2c1 [Compound 1] | C (C denotes ≤5-fold) | ≥ 2 µM |
| Cc1cc([C@@H](C)Nc2ccccc2C(=O)O)c2nc(N3CCC(C)(C)CC3)nc(N)c2c1 [Compound 2] | C (C denotes ≤5-fold) | ≥ 2 µM |
| Cc1cc(C(C)Nc2ccccc2C(=O)O)c2nc(N3CCC(C)(C)CC3)nc(N)c2c1 (centres unmarked) [Compound 3] | C (C denotes ≤5-fold) | ≥ 2 µM |
| Cc1cc([C@H](C)Nc2ccccc2C(=O)O)c2nc(N3CCC(C)(C)CC3)ncc2c1 [Compound 7] | C (C denotes ≤5-fold) | ≥ 2 µM |
| Cc1cc([C@H](C)Nc2ccccc2C(=O)O)c2nc(N3CCC(C)(C)CC3)nc(O)c2c1 [Compound 11] | B (B denotes 20-fold≥value>5-fold) | 0.75 to 2 µM |
| Cc1cc([C@@H](C)Nc2ccccc2C(=O)O)c2nc(N3CCC(C)(C)CC3)nc(O)c2c1 [Compound 12] | C (C denotes ≤5-fold) | ≥ 2 µM |
| Cc1cc([C@H](C)Nc2ccccc2C(=O)O)c2[nH]c(N3CCOCC3)nc(=O)c2c1 [Compound 17] | B (B denotes 20-fold≥value>5-fold) | < 0.75 µM |
| Cc1cc([C@@H](C)Nc2ccccc2C(=O)O)c2[nH]c(N3CCOCC3)nc(=O)c2c1 [Compound 18] | C (C denotes ≤5-fold) | ≥ 2 µM |
| Cc1cc(C(C)Nc2ccccc2C(=O)O)c2nc(N3CCC(C)(C)CC3)nc(NC(=O)CCl)c2c1 (centres unmarked) [Compound 21] | C (C denotes ≤5-fold) | ≥ 2 µM |
| Cc1cc(C(C)Nc2ccccc2C(=O)O)c2nc(N3CCC(C)(C)CC3)nc(C(N)=O)c2c1 (centres unmarked) [Compound 23] | C (C denotes ≤5-fold) | ≥ 2 µM |
| Cc1cc(C(C)Nc2ccccc2C(=O)O)c2nc(N3CCC(C)(C)CC3)nc(C#N)c2c1 (centres unmarked) [Compound 61] | A (A denotes >20-fold) | < 0.75 µM |
| Cc1cc(C(C)Nc2ccccc2C(=O)O)c2nc(N3Cc4ccccc4C3)nc(N3CC(O)C3)c2c1 (centres unmarked) [Compound 63, 2-((1-(4-(3-hydroxyazetidin-1-yl)-2-(isoindolin-2-yl)-6-methylquinazolin-8-yl)ethyl)amino)benzoic acid] | B (B denotes 20-fold≥value>5-fold) | 0.75 to 2 µM |
| Cc1cc(C(C)Nc2ccccc2C(=O)O)c2nc(N3Cc4ccccc4C3)nc(NC3COC3)c2c1 (centres unmarked) [Compound 71] | C (C denotes ≤5-fold) | ≥ 2 µM |
| Cc1cc([C@@H](C)Nc2ccccc2C(=O)O)c2cc(-c3ccc4c(c3)c(C)nn4C)n(C)c(=O)c2c1 [Compound 86] | A (A denotes >20-fold) | < 0.75 µM |
| Cc1cc(C(C)Nc2ccccc2C(=O)O)c2cc(-c3ccc4c(c3)c(C)nn4C)n(C)c(=O)c2c1 (centres unmarked) [Compound 87] | A (A denotes >20-fold) | < 0.75 µM |
| Cc1cc(C(C)Nc2ccccc2C(=O)O)c2cc(C3CCCOC3)ncc2c1 (centres unmarked) [Compound 131] | A (A denotes >20-fold) | < 0.75 µM |
| Cc1cc([C@@H](C)Nc2ccccc2C(=O)O)c2cc(OC3CCOCC3)ncc2c1 [Compound 132] | A (A denotes >20-fold) | < 0.75 µM |
| Cc1cc(C(C)Nc2ccccc2C(=O)O)c2nc(-c3ccc4c(c3)c(C)cn4C)n(C)c(=O)c2c1 (centres unmarked) [Compound 133] | A (A denotes >20-fold) | < 0.75 µM |
| Cc1cc([C@@H](C)Nc2ccccc2C(=O)O)c2nc(-c3ccc4c(c3)c(C)cn4C)n(C)c(=O)c2c1 [Compound 134] | A (A denotes >20-fold) | < 0.75 µM |

More lines, now with the values ahead:

| T47D pAKT S473 HTRF IC50 (H1047R): T47D (H1047R) selectivity over SKBR3 (WT) | IC50 | SMILES |
| --- | --- | --- |
| C (C denotes ≤5-fold) | ≥ 2 µM | Cc1cc([C@@H](C)Nc2ccccc2C(=O)O)c2nc(N3Cc4ccccc4C3)[nH]c(=O)c2c1 [Compound 4] |
| C (C denotes ≤5-fold) | ≥ 2 µM | Cc1cc(C(C)Nc2ccccc2C(=O)O)c2nc(N3Cc4ccccc4C3)[nH]c(=O)c2c1 (centres unmarked) [Compound 6] |
| B (B denotes 20-fold≥value>5-fold) | < 0.75 µM | Cc1cc(C(C)Nc2ccccc2C(=O)O)c2nc(-c3ccncc3)nc(O)c2c1 (centres unmarked) [Compound 9, 2-((1-(4-hydroxy-6-methyl-2-(pyridin-4-yl)quinazolin-8-yl)ethyl)amino)benzoic acid] |
| A (A denotes >20-fold) | < 0.75 µM | Cc1cc(C(C)Nc2ccccc2C(=O)O)c2nc(N3Cc4ccccc4C3)nc(C(N)=O)c2c1 (centres unmarked) [Compound 24] |
| B (B denotes 20-fold≥value>5-fold) | 0.75 to 2 µM | Cc1cc(C(C)Nc2ccccc2C(=O)O)c2nc(N3Cc4ccccc4C3)ccc2c1 (centres unmarked) [Compound 30] |
| C (C denotes ≤5-fold) | ≥ 2 µM | Cc1cc([C@@H](C)Nc2ccccc2C(=O)O)c2nc(N3Cc4ccccc4C3)ncc2c1 [Compound 35] |
| B (B denotes 20-fold≥value>5-fold) | 0.75 to 2 µM | Cc1cc([C@H](C)Nc2ccccc2C(=O)O)c2nc(N3Cc4ccccc4C3)ncc2c1 [Compound 36] |
| C (C denotes ≤5-fold) | ≥ 2 µM | Cc1cc([C@H](C)Nc2ccccc2C(=O)O)c2nc(-c3ccc(F)cc3)n(C)c(=O)c2c1 [Compound 39] |
| C (C denotes ≤5-fold) | ≥ 2 µM | Cc1cc(C(C)Nc2ccccc2C(=O)O)c2cc(N3Cc4ccccc4C3)nc(C#N)c2c1 (centres unmarked) [Compound 46] |
| B (B denotes 20-fold≥value>5-fold) | 0.75 to 2 µM | Cc1cc(C(C)Nc2ccccc2C(=O)O)c2cc(N3Cc4ccccc4C3)ncc2c1 (centres unmarked) [Compound 59] |
| B (B denotes 20-fold≥value>5-fold) | 0.75 to 2 µM | Cc1cc(C(C)Nc2ccccc2C(=O)O)c2nc(N3Cc4ccccc4C3)nc(NC3CC3O)c2c1 (centres unmarked) [Compound 65] |
| B (B denotes 20-fold≥value>5-fold) | 0.75 to 2 µM | Cc1cc(C(C)Nc2ccccc2C(=O)O)c2nc(N3Cc4ccccc4C3)nc(C3CC3O)c2c1 (centres unmarked) [Compound 69] |
| A (A denotes >20-fold) | < 0.75 µM | Cc1cc([C@@H](C)Nc2ccccc2C(=O)O)c2cc(-c3ccnc(C4CC4)c3)ncc2c1 [Compound 89] |
| A (A denotes >20-fold) | < 0.75 µM | Cc1cc(C(C)Nc2ccccc2C(=O)O)c2cc(OCc3ccccc3)nc(C(N)=O)c2c1 (centres unmarked) [Compound 128] |
| A (A denotes >20-fold) | < 0.75 µM | Cc1cc([C@@H](C)Nc2ccccc2C(=O)O)c2nc(-c3ccc(C)nc3)n(C)c(=O)c2c1 [Compound 135] |
